For this assay, the target named is T1, human EP3 receptor (Homo sapiens, UniProt P43115).
T1 construct: expressed in transfected cells; host or cells: CHO K1 (Chinese Hamster Ovary), stably co-transfected with Galpha16 and mitochondrial clytin
T1 sequence (P43115 1-390): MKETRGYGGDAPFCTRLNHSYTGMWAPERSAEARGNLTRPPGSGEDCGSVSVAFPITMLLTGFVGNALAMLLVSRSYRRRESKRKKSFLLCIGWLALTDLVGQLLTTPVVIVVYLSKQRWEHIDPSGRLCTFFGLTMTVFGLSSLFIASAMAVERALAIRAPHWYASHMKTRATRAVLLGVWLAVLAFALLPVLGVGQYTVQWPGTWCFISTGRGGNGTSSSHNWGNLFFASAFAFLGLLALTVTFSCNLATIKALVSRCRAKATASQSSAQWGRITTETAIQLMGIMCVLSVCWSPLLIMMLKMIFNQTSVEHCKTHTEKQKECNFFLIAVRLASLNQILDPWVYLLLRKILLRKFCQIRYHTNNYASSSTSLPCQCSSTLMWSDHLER
Nature of the assay: Cellular in vitro assay for determining EP3 receptor activity (human EP3 cell line, sulprostone-stimulated calcium luminescence). In kind it is cell-based. The following applies: CHO cells expressing human EP3 and mitochondrial Clytin; antagonist mode, sulprostone at EC50; read-out: EP3 CHO mtCLY ANTAG IC50. Put shortly:
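Antagonist activity was measured as inhibition of the luminescent calcium signal elicited by EC50 sulprostone, following 10 min compound pretreatment. The cell line was recombinant CHO K1 co-expressing human EP3, Gα16 and the photoprotein Clytin, reconstituted with coelenterazine.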
Usually IC50 stands for the concentration needed to halve the response being measured. In the case of `Cc1cccc2ncc(-c3cn4nc(C(=O)NC(c5cccc(F)c5)C(F)F)c(C(C)C)c4c(=O)[nH]3)cc12` (stereo not shown) [Example 4-76, N-[2,2-Difluoro-1-(3-fluorophenyl)ethyl]-3-isopropyl-6-(5-methyl-3-quinolyl)-4-oxo-5H-pyrazolo[1,5-a]pyrazine-2-carboxamide], the concentration for half-maximal inhibition (IC50) came out at 3.15 nM. For `COc1ccc(CNC(=O)c2cc3c(=O)[nH]c(-c4ccc5c(c4)OCCO5)cn3n2)cc1OC` [6-76], the IC50 was determined as 1.87 nM. As for `Cc1ccc(-c2cn3nc(C(=O)NC(c4ccccc4)C(O)C(F)(F)F)c(C)c3c(=O)[nH]2)cc1F` (stereo not shown) [6-407], the figure is 1.03 nM. To `COc1ccc(CNC(=O)c2cc3c(=O)[nH]c(-c4ccc5c(c4)N(C)CCO5)cn3n2)cc1OC` [Example 1-16, N-(3,4-Dimethoxybenzyl)-6-(4-methyl-3,4-dihydro-2H-1,4-benzoxazin-6-yl)-4-oxo-4,5-dihydropyrazolo[1,5-a]pyrazine-2-carboxamide] belongs 2 nM. As for `Cc1cc(-c2cn3nc(C(=O)N[C@@H](c4ccc(F)cc4)C(C)(C)O)c(C(F)(F)F)c3c(=O)[nH]2)ccc1F` [6-648], the figure is 2.77 nM; as for `Cc1ccc(-c2cn3nc(C(=O)NCCC(O)C(F)(F)F)c(C4CC4)c3c(=O)[nH]2)cc1F` (racemic) [6-366], 2.2 nM; as for `Cc1cc(-c2cn3nc(C(=O)N[C@H](CN4CCC(F)(F)C4)c4ccc(F)cc4)c(C4CC4)c3c(=O)[nH]2)ccc1Cl` [6-339], 7.15 nM. Regarding `Cc1cc(-c2cn3nc(C(=O)N[C@@H](C)C4CC4)c(C(F)(F)C(F)(F)F)c3c(=O)[nH]2)ccc1Cl` [6-478], the IC50 was determined as 1.2 nM.

Turning to `N#Cc1c(C(=O)NC2Cc3ccccc3C2)nn2cc(-c3ccc4ccccc4c3)[nH]c(=O)c12` [Example 3-55, 3-Cyano-N-(2,3-dihydro-1H-inden-2-yl)-6-(naphthalen-2-yl)-4-oxo-4,5-dihydropyrazolo[1,5-a]pyrazine-2-carboxamide], the IC50 came out at 7.2 nM.

For `O=C(NC1CCN(C2CC2)C1)c1nn2cc(-c3ccc4ccccc4c3)[nH]c(=O)c2c1C(F)(F)F` (single isomer, unassigned) [6-501], the IC50 is 5.7 nM. Take `Cc1cccc2ncc(-c3cn4nc(C(=O)NC5(c6ccc(Cl)cc6)CCC5)c(C(C)C)c4c(=O)[nH]3)cc12` [Example 4-50, N-[1-(4-Chlorophenyl)cyclobutyl]-6-(5-methylquinolin-3-yl)-4-oxo-3-(propan-2-yl)-4,5-dihydropyrazolo[1,5-a]pyrazine-2-carboxamide]: the IC50 came to 8.3 nM. To `Cc1ccc(-c2cn3nc(C(=O)N[C@@H](CCO)c4ccc(F)cc4)c(C#N)c3c(=O)[nH]2)cc1C` [Example 1-75, 3-Cyano-6-(3,4-dimethylphenyl)-N-[(1S)-1-(4-fluorophenyl)-3-hydroxpropyl]-4-oxo-4,5-dihydropyrazolo[1,5-a]pyrazine-2-carboxamide] belongs 8.75 nM. As for `Cc1c(C(=O)NCCOCC(F)(F)F)nn2c(C)c(-c3ccc4ccccc4c3)[nH]c(=O)c12` [Example 3-3, 3,7-Dimethyl-6-(naphthalen-2-yl)-4-oxo-N-[2-(2,2,2-trifluoroethoxy)ethyl]-4,5-dihydropyrazolo[1,5-a]pyrazine-2-carboxamide], the figure is 5.4 nM; as for `CCn1nccc1CNC(=O)c1nn2c(C)c(-c3ccc4ccccc4c3)[nH]c(=O)c2c1C` [Example 1-68, N-[(1-Ethyl-1H-pyrazol-5-yl)methyl]-3,7-dimethyl-6-(naphthalen-2-yl)-4-oxo-4,5-dihydropyrazolo-[1,5-a]pyrazine-2-carboxamide], 1.42 nM. As for `Cc1ccc(-c2cn3nc(C(=O)NC4(c5ccc(F)cc5)CN(C)C4)c(C)c3c(=O)[nH]2)cc1Cl` [Example 1-150, 6-(3-Chloro-4-methylphenyl)-N-[3-(4-fluorophenyl)-1-methylazetidin-3-yl]-3-methyl-4-oxo-4,5-dihydropyrazolo[1,5-a]pyrazine-2-carboxamide], the figure is 7.23 nM. Regarding `Cc1ccc(-c2cn3nc(C(=O)N[C@@H](C)C4CC4)c(C4CC4)c3c(=O)[nH]2)cc1Cl` [6-254], the IC50 turned out to be 2.3 nM. Take `Cc1ccc(-c2cn3nc(C(=O)N[C@@H](C)C(C)C)c(C(F)(F)F)c3c(=O)[nH]2)cc1Cl` [6-187]: the IC50 stood at 1.45 nM. With `CC(NC(=O)c1cc2c(=O)[nH]c(-c3ccc4ccccc4c3)cn2n1)c1ccc(F)cc1` (stereo not shown) [6-19], the IC50 is 3.1 nM. To `Cc1ccc(-c2cn3nc(C(=O)N[C@H](CCO)c4ccc(F)cc4)c(C(F)(F)F)c3c(=O)[nH]2)cc1Cl` [6-196] belongs 0.29 nM. As for `CCN(CCO)CC(NC(=O)c1cc2c(=O)[nH]c(-c3cnc4cccc(C)c4c3)cn2n1)c1ccccc1` (stereo not shown) [Example 1-115, N-[2-[Ethyl(2-hydroxyethyl)amino]-1-phenylethyl]-6-(5-methyl-3-quinolyl)-4-oxo-5H-pyrazolo-[1,5-a]pyrazine-2-carboxamide], the figure is 3.4 nM; as for `CN1CC(NC(=O)c2nn3cc(-c4ccc5c(c4)OCCO5)[nH]c(=O)c3c2C(F)(F)F)(c2ccc(F)cc2)C1` [6-535], 4.2 nM; as for `Cc1ccc(-c2cn3nc(C(=O)NC(C)c4ccc(F)cc4)cc3c(=O)[nH]2)cc1C` (stereo not shown) [Example 5-1, 6-(3,4-Dimethylphenyl)-N-[1-(4-fluorophenyl)ethyl]-4-oxo-5H-pyrazolo[1,5-a]pyrazine-2-carboxamide], 6.78 nM.

`Cc1cc(-c2cn3nc(C(=O)NCCN(CC(F)F)C4CC4)c(C4CC4)c3c(=O)[nH]2)ccc1C(F)(F)F` [6-128]: the IC50 was found to be 9.25 nM. As for `Cc1cc(-c2cn3nc(C(=O)NC(C)C4CCC4)c(C4CC4)c3c(=O)[nH]2)ccc1Cl` (single isomer, unassigned) [6-299], the figure is 4.4 nM; as for `Cc1cccc2ncc(-c3cn4nc(C(=O)N[C@H]5CCCc6ccccc65)c(C(C)C)c4c(=O)[nH]3)cc12` [Example 4-58, 6-(5-Methylquinolin-3-yl)-4-oxo-3-(propan-2-yl)-N-[(7S)-1,2,3,4-tetrahydronaphthalen-1-yl]-4,5-dihydropyrazolo[1,5-a]pyrazine-2-carboxamide], 4.3 nM.

Regarding `C[C@@H](CN1CC(F)C1)NC(=O)c1nn2cc(-c3ccc4ccccc4c3)[nH]c(=O)c2c1C(F)(F)F` [6-514], the IC50 worked out at 9.25 nM.

As for `Cc1cccc2ncc(-c3cn4nc(C(=O)NC(CO)c5cc(Cl)cc(Cl)c5)c(C(C)C)c4c(=O)[nH]3)cc12` (stereo not shown) [Example 4-66, N-[1-(3,5-Dichlorophenyl)-2-hydroxyethyl]-3-isopropyl-6-(5-methyl-3-quinolyl)-4-oxo-5H-pyrazolo[1,5-a]pyrazine-2-carboxamide], the half-maximal inhibitory concentration (IC50) was determined as 3.9 nM. To `Cc1c(C(=O)NCc2cccc(CN(C)C)c2)nn2c(C)c(-c3ccc4ccccc4c3)[nH]c(=O)c12` [Example 3-42, N-({3-[(Dimethylamino)methyl]phenyl}methyl)-3,7-dimethyl-6-(naphthalen-2-yl)-4-oxo-4,5-dihydropyrazolo[1,5-a]pyrazine-2-carboxamide] belongs 4.9 nM; to `Cc1cc(CNC(=O)c2nn3cc(-c4cnc5cccc(C)c5c4)[nH]c(=O)c3c2C(C)C)on1` [Example 4-41, N-[(3-Methyl-1,2-oxazol-5-yl)methyl]-6-(5-methylquinolin-3-yl)-4-oxo-3-(propan-2-yl)-4,5-dihydropyrazolo[1,5-a]pyrazine-2-carboxamide], 0.95 nM. For `Cc1ccc(-c2cn3nc(C(=O)N[C@@H](C)CO)c(C4CC4)c3c(=O)[nH]2)cc1C` [Example 1-155, 3-Cyclopropyl-6-(3,4-dimethylphenyl)-N-[(2S)-1-hydroxpropan-2-yl]-4-oxo-4,5-dihydropyrazolo-[1,5-a]pyrazine-2-carboxamide], the IC50 came out at 1.5 nM. On to `CN(C)CC(NC(=O)c1cc2c(=O)[nH]c(-c3ccc4ccccc4c3)cn2n1)c1ccccc1` (racemic) [Example 1-4, rac-N-[2-(Dimethylamino)-1-phenylethyl]-6-(naphthalen-2-yl)-4-oxo-4,5-dihydropyrazolo[1,5-a]-pyrazine-2-carboxamide], for which the IC50 came to 4.36 nM.

`Cc1cc(C)n(C(CNC(=O)c2cc3c(=O)[nH]c(-c4ccc5ccccc5c4)cn3n2)C(C)C)n1` (stereo not shown) [Example 2-19, N-[2-(3,5-Dimethyl-1H-pyrazol-1-yl)-3-methylbutyl]-6-(2-naphthyl)-4-oxo-4,5-dihydropyrazolo[1,5-a]pyrazine-2-carboxamide]: the IC50 was determined as 7.9 nM. To `CC(C)c1c(C(=O)NC2(c3ccc(F)cc3)CN(C)C2)nn2cc(-c3cccc(Cl)c3)[nH]c(=O)c12` [6-684] belongs 3.35 nM; to `C[C@@H](NC(=O)c1cc2c(=O)[nH]c(-c3ccc4cccc(F)c4c3)cn2n1)c1ccc(F)cc1` [6-38], 1.45 nM.

Turning to `COc1cc(-c2cn3nc(C(=O)N[C@@H](c4ccc(F)cc4)C(F)(F)CO)c(C4CC4)c3c(=O)[nH]2)ccc1Cl` [6-486], the IC50 was found to be 2.1 nM. To `CC(NC(=O)c1cc2c(=O)[nH]c(-c3ccc4ccccc4c3)cn2n1)c1ccc(OCC(F)(F)F)cn1` (stereo not shown) [6-6] belongs 2.8 nM; to `N#Cc1c(C(=O)NC2(c3ccc(Cl)cc3)CCC2)nn2cc(-c3ccc4ccccc4c3)[nH]c(=O)c12` [Example 3-62, N-[1-(4-Chlorophenyl)cyclobutyl]-3-cyano-6-(naphthalen-2-yl)-4-oxo-4,5-dihydropyrazolo[1,5-a]pyrazine-2-carboxamide], 4 nM.

These data come from patent US20220324865A1 (Bayer Aktiengesellschaft, priority 2018, published 2022).
